According to patent US11142515B2, “Pyrazolyl-ureas as kinase inhibitors” (RESPIVERT LIMITED, priority 2014, dated 2021):

How the values were obtained:
Hck = biological target: T1, Hck (Homo sapiens, UniProt P08631); assay: Hck enzyme inhibition (Z-LYTE FRET); type: biochemical; conditions: Table 2A
T1 construct: purchased Life Technologies
Method: (§1) The enzyme inhibitory activities of compounds disclosed herein were determined by FRET using synthetic peptides labelled with both donor and acceptor fluorophores (Z-LYTE, Life Technologies, Paisley, UK).
The relevant enzyme (1000 ng/mL, 1400 ng/mL or 2000 ng/mL respectively, 2.5 μL) was incubated with the test compound (either 40 μg/mL, 12 μg/mL, 4 μg/mL, 1.2 μg/mL, 0.4 μg/mL, 0.12 μg/mL, 0.04 μg/mL, 0.012 μg/mL, 0.004 μg/mL or 0.0012 μg/mL, 2.5 μL each) for 2 h at RT. The FRET peptides (8 μM, 2.5 μL), and appropriate ATP solutions (2.5 μL, 800 μM for c-Src, and 60 μM ATP for HCK and Syk) were then added to the enzyme/compound mixtures and incubated for 1 h at RT. Development reagent (protease, 5 μL) was added for 1 h prior to detection in a fluorescence microplate reader (EnVision, Perkin Elmer).
(§2) In all cases, the site-specific protease cleaves non-phosphorylated peptide only and eliminates the FRET signal. Phosphorylation levels of each reaction were calculated using the ratio of coumarin emission (donor) over fluorescein emission (acceptor), for which low ratios indicate high phosphorylation and high ratios indicate low phosphorylation levels.

[1] = system: TNFα release in d-U937 cells; assay: LPS-induced TNFα release in d-U937 cells; type: cell-based; conditions: Homo sapiens, dU937; read-out: LPS Induced Release TNFα REC50 (dU937); note: relative to 10 µg/mL BIRB-796
Method: (§3) U937 cells, a human monocytic cell line, were differentiated into macrophage-type cells by incubation with PMA (100-200 ng/mL) for 48 to 72 h. Cells were pre-incubated with final […] concentrations of test compound for 2 h and were then stimulated with LPS (0.1 μg/mL; from E. coli: O111:B4, Sigma) for 4 h. The supernatant was collected for determination of TNFα and IL-8 concentrations by sandwich ELISA (Duo-set, R&D systems). […] The relative 50% effective concentration (REC50) was determined from the resultant concentration-response curve. The inhibition of IL-8 production was calculated at each concentration of test compound by comparison with vehicle control.

[2] = system: IL-8 release in d-U937 cells; assay: LPS-induced IL-8 release in d-U937 cells; type: cell-based; conditions: Homo sapiens, dU937, LPS 0.1 μg/mL 4 h
Method: as §3

p38MAPKγ (MAPK12) = biological target: T2, p38MAPKγ (MAPK12) (Homo sapiens, UniProt P53778); assay: p38 MAPKγ enzyme inhibition (Z-LYTE FRET); type: biochemical; conditions: Table 2A; read-out: IC50 Values for Enzyme Inhibition p38 MAPKγ
T2 construct: purchased Life Technologies
T2 sequence (P53778 1-367): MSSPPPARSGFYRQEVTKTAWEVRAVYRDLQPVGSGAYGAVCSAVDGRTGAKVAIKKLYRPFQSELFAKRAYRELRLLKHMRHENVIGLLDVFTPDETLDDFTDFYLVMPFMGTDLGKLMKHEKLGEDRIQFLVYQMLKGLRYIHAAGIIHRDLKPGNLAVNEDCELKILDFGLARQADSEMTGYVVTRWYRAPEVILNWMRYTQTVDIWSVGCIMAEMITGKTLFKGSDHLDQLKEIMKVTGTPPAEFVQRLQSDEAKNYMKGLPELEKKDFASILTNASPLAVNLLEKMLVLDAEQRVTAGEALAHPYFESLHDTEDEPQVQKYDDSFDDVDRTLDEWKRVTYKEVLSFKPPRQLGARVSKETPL
Outline: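 Enzyme (added at 800 ng/mL) was preincubated 2 h at RT with compound (solutions of 40 to 0.0012 μg/mL), then FRET peptide (8 μM) and ATP (400 μM), both as added, were reacted 1 h at RT. Protease development followed for 1 h; phosphorylation was read as the coumarin/fluorescein emission ratio.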

[3] = biological target: T3, p38 MAPKα isoform (MAPK14) (Homo sapiens, UniProt Q16539); assay: p38 MAPKα enzyme inhibition (Z-LYTE FRET); type: biochemical; conditions: Table 2A; read-out: IC50 Values for Enzyme Inhibition p38 MAPKα
T3 construct: purchased Life Technologies
T3 sequence (Q16539 whole entry, canonical isoform): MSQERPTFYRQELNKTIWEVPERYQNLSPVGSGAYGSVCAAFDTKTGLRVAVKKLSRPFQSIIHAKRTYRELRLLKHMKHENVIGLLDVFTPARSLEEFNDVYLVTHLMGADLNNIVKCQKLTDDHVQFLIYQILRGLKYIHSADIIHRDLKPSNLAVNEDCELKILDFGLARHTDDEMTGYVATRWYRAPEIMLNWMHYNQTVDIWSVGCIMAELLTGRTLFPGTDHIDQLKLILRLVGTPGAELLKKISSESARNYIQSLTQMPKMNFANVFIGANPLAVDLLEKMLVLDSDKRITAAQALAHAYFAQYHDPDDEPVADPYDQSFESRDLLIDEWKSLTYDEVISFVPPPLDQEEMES
Outline: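 Activity was measured indirectly as phosphorylation of a MAPKAP-K2-derived FRET peptide. Enzyme (added at 40 ng/mL) was preincubated 2 h at RT with compound (added solutions 40–0.0012 μg/mL).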

GSK 3α enzyme isoform = biological target: T4, GSK 3α enzyme isoform (Homo sapiens, UniProt P49840); assay: GSK 3α enzyme inhibition (Z-LYTE FRET); type: biochemical; conditions: for IC50: Table 2A, read-out: IC50 Values for Enzyme Inhibition GSK3α
T4 construct: purchased Life Technologies
T4 sequence (P49840 whole entry, canonical isoform): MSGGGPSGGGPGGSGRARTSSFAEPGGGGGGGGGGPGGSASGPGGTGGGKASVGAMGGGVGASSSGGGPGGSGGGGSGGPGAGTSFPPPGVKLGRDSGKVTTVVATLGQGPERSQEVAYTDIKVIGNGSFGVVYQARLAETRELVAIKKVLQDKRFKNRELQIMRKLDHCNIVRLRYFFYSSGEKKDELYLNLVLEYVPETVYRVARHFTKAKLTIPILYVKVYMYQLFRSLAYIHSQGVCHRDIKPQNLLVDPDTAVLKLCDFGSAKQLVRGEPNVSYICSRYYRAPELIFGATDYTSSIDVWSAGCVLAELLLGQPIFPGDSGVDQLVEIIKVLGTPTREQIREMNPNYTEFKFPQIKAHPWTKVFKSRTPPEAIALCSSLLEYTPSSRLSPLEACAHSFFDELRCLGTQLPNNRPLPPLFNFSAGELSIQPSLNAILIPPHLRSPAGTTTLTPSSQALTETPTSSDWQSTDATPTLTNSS
Method: as §1
The GSK3a protein (500 ng/mL, 2.5 μL) was incubated with the test compound (2.5 μL at either 40 μg/mL, 12 μg/mL, 4 μg/mL, 1.2 μg/mL, 0.4 μg/mL, 0.12 μg/mL, 0.04 μg/mL, 0.012 μg/mL, 0.004 μg/mL or 0.0012 μg/mL) for 2 h at RT. The FRET peptide (8 μM, 2.5 μL), which is a phosphorylation target for GSK3α, and ATP (40 μM, 2.5 μL) was then added to the enzyme/compound mixture and the resulting mixture incubated for 1 h at RT. Development reagent (protease, 5 μL) was added for 1 h prior to detection in a fluorescence microplate reader (EnVision, Perkin Elmer).
as §2

T1 sequence (P08631 22-526): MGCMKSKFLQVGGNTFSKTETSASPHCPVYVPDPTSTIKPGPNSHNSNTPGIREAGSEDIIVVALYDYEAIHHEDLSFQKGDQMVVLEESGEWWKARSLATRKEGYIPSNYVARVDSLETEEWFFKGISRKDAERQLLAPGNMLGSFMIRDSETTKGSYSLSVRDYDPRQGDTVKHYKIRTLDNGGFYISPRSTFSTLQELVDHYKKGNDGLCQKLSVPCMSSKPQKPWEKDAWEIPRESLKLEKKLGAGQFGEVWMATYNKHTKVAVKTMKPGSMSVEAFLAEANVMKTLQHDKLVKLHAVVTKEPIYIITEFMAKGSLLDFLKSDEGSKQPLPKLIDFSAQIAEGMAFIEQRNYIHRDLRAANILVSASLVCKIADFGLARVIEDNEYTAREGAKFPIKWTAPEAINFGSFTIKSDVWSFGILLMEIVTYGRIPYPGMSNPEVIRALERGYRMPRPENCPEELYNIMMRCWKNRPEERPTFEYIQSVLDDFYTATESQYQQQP

IC50 (Hck)	EC50 [1]	IC50 [2]	IC50 (p38MAPKγ (MAPK12))	IC50 [3]	IC50 (GSK 3α enzyme isoform)	Compound	inhibitory activity against GSK3a (in words) (GSK 3α enzyme isoform)
20 nM	4.5 nM	14.6 nM	74 nM	7 nM	469 nM	Cc1ccc(-n2nc(C(C)(C)C)cc2NC(=O)Nc2ccc(OCc3ccnc(Nc4cnc(CO)cn4)c3)c3ccccc23)s1 [Example 26]	
23 nM	3 nM	11.7 nM	79 nM	11 nM	8780 nM	Cc1cccc(-n2nc(C(C)(C)C)cc2NC(=O)Nc2ccc(OCc3ccnc(Nc4cnccn4)c3)c3ccccc23)c1 [Example 40]	
89 nM	4.3 nM	18.3 nM	521 nM	15 nM	6940 nM	CCc1ccc(-n2nc(C(C)(C)C)cc2NC(=O)Nc2ccc(OCc3ccnc(Nc4cnccn4)c3)c3ccccc23)cc1 [Example 42]	
48 nM	1.6 nM	2.8 nM	1070 nM	19 nM	> 13800 nM	Cc1ccc(-n2nc(C(C)(C)C)cc2NC(=O)Nc2ccc(OCc3ccnc(Nc4cnc(C(=O)N5CCCC5)cn4)c3)c3ccccc23)cc1 [Example 36]	
59 nM	1 nM	33.4 nM	112 nM	4 nM	11300 nM	Cc1cc(-n2nc(C(C)(C)C)cc2NC(=O)Nc2ccc(OCc3ccnc(Nc4cnccn4)c3)c3ccccc23)cs1 (single isomer, unassigned) [Example 31]	
17 nM	12.7 nM	16.5 nM	74 nM	8 nM	2820 nM	Cc1ccc(-n2nc(C(C)(C)C)cc2NC(=O)Nc2ccc(OCc3ccnc(Nc4cnc(C(=O)NCCN5CCOCC5)cn4)c3)c3ccccc23)cc1 [Example 17]	
66 nM	5.5 nM	8.8 nM	222 nM	9 nM	> 14300 nM	COCCNC(=O)c1cnc(Nc2cc(COc3ccc(NC(=O)Nc4cc(C(C)(C)C)nn4-c4ccc(C)cc4)c4ccccc34)ccn2)cn1 [Example 3]	
< 0.48 nM	2.8 nM	2.4 nM	16 nM	< 0.48 nM	2770 nM	Cc1ccc(-n2nc(C(C)(C)C)cc2NC(=O)Nc2ccc(OCc3ccnc(Nc4cnc(CN)cn4)c3)c3ccccc23)cc1 [Example 5, 1-(4-((2-((5-(Aminomethyl)pyrazin-2-yl)amino)pyridin-4-yl)methoxy)naphthalen-1-yl)-3-(3-(tert-butyl)-1-(p-tolyl)-1H-pyrazol-5-yl)urea]	
29 nM	1.6 nM	13 nM	67 nM	25 nM	> 16700 nM	Cc1ccc(-n2nc(C(C)(C)C)cc2NC(=O)Nc2ccc(OCc3ccnc(Nc4cnccn4)c3)c3ccccc23)cc1 [Example 1, 1-(3-(tert-Butyl)-1-(p-tolyl)-1H-pyrazol-5-yl)-3-(4-((2-(pyrazin-2-ylamino)pyridin-4-yl)methoxy)naphthalen-1-yl)urea]	very much weaker than the Reference Compound
49 nM	18.2 nM	7.8 nM	63 nM	9 nM	> 14700 nM	Cc1ccc(-n2nc(C(C)(C)C)cc2NC(=O)Nc2ccc(OCc3ccnc(Nc4cnccn4)c3)c3ccccc23)s1 [Example 13]	
2240 nM	3.5 nM	17.1 nM	> 16200 nM	120 nM	1900 nM	CC(C)(C)c1cc(NC(=O)Nc2ccc(OCc3ccnc(Nc4cnccn4)c3)c3ccccc23)n(-c2ccc(Cl)cc2)n1 [Example 45]	
6 nM	5.2 nM	6.9 nM	29 nM	2 nM	1490 nM	Cc1ccc(-n2nc(C(C)(C)C)cc2NC(=O)Nc2ccc(OCc3ccnc(Nc4cnc(CC(N)=O)cn4)c3)c3ccccc23)cc1 [Example 30]	
60 nM	2.7 nM	9.6 nM	> 16300 nM	14 nM	5990 nM	COc1ccc(-n2nc(C(C)(C)C)cc2NC(=O)Nc2ccc(OCc3ccnc(Nc4cnccn4)c3)c3ccccc23)cc1 [Example 38]	
13 nM	3.1 nM	6.2 nM	209 nM	4 nM	626 nM	COc1ccc(-n2nc(C(C)(C)C)cc2NC(=O)Nc2ccc(OCc3ccnc(Nc4cnc(CO)cn4)c3)c3ccccc23)cc1 [Example 23]	
10 nM	4.2 nM	8.5 nM	80 nM	5 nM	207 nM	Cc1ccc(-n2nc(C(C)(C)C)cc2NC(=O)Nc2ccc(OCc3ccnc(Nc4cnc(CC(=O)N(C)C)cn4)c3)c3ccccc23)cc1 [Example 29]	
64 nM	10.7 nM	16.7 nM	151 nM	15 nM	> 15200 nM	CNC(=O)c1cnc(Nc2cc(COc3ccc(NC(=O)Nc4cc(C(C)(C)C)nn4-c4ccc(C)cc4)c4ccccc34)ccn2)cn1 [Example 7, 5-((4-(((4-(3-(3-(tert-Butyl)-1-(p-tolyl)-1H-pyrazol-5-yl)ureido)naphthalen-1-yl)oxy)methyl)pyridin-2-yl)amino)-N-methylpyrazine-2-carboxamide]	
31 nM	3.4 nM	12.8 nM	310 nM	18 nM	> 15900 nM	COc1ccc(-n2nc(C(C)(C)C)cc2NC(=O)Nc2ccc(OCc3ccnc(Nc4cnccn4)c3)c3ccccc23)cc1C [Example 39]	
> 8890 nM	2.3 nM	12.5 nM	682 nM	52 nM	> 16000 nM	Cc1ccc(-n2nc(C(C)(C)C)cc2NC(=O)Nc2ccc(OCc3ccnc(Nc4cncc(C#N)n4)c3)c3ccccc23)cc1 [Example 11]	
6 nM	2.9 nM	5.5 nM	237 nM	12 nM	3370 nM	Cc1ccc(-n2nc(C(C)(C)C)cc2NC(=O)Nc2ccc(OCc3ccnc(Nc4cncc(N(C)C)n4)c3)c3ccccc23)cc1 [Example 14]	
133 nM	0.3 nM	16.7 nM	1230 nM	91 nM	4210 nM	Cc1ccc(-n2nc(C(C)(C)C)cc2NC(=O)Nc2ccc(OCc3ccnc(Nc4cncc(C5CCCC5)n4)c3)c3ccccc23)cc1 [Example 48]	
13 nM	4.3 nM	4 nM	376 nM	17 nM	1030 nM	Cc1cc(-n2nc(C(C)(C)C)cc2NC(=O)Nc2ccc(OCc3ccnc(Nc4cncc(C5CC5)n4)c3)c3ccccc23)cs1 [Example 27]	
